Test results as given in ChEMBL document CHEMBL3045023, “Design, synthesis, and antiviral activity evaluation of phenanthrene-based antofine derivatives” (2012).

Test system: Tobacco mosaic virus
Test: Antiviral activity against Tobacco mosaic virus (TMV) assessed as inhibition of viral growth at 1 ug/mL
Type: functional
Conditions: read-out: GI

Structure (SMILES) | inhibition of growth at 1 µg/mL
COc1cc2c3c(c4ccc(O)cc4c2cc1OC)CN1CCC[C@@H]1C3 | 70%
COc1ccc2c3c(c4cc(OC)c(OC)cc4c2c1)C[C@H]1CCCN1C3 [(-)-ANTOFINE] | 63%
